Results reported in patent publication US9458146B2, “Crystalline sodium salt of an HIV integrase inhibitor” (SANDOZ AG, priority 2011, dated 2016).
≈ marks a conversion by molar mass, not a printed value.

Key:
[1] = Solubility and stability of form A in water; format: physicochemical; details: 22±2° C.
Method: 104 mg of raltegravir sodium salt form A is suspended in 1.0 ml water and the suspension placed on a laboratory shaker at 22±2° C. for 24 hours at a rate of 400 rpm. After 24 hours shaking the suspension is filtered, the obtained solid investigated by powder X-ray diffraction, and the concentration in the liquid phase is determined by UV-vis spectroscopy.

[2] = Storage of form A at elevated temperature; format: physicochemical

Cc1nnc(C(=O)NC(C)(C)c2nc(C(=O)NCc3ccc(F)cc3)c(O)c(=O)n2C)o1 [form A, N-(4-fluorobenzyl)-5-hydroxy-1-methyl-2-(1-methyl-1-{[(5-methyl-1,3,4-oxadiazol-2-yl)carbonyl]amino}ethyl)-6-oxo-1,6-dihydropyrimidine-4-carboxamide]
solubility ([1]; 22 °C, thermodynamic from solid, suspended in water, 24 hours shaking, resulting pH 10.4, UV-vis, read-out: aqueous solubility (concentration in the liquid phase)): 47 ± 5 mg/mL (≈ 106 mM) | crystalline form of the solid after suspension in water (XRPD) ([1]; suspension in water, 24 hours): form A is retained | pH of the liquid phase ([1]; suspension in water, 24 hours): 10.4 | crystalline form of the solid after suspension in water (XRPD) ([1]; suspension in water, 24 hours, listed as raltegravir sodium salt form A): crystalline form A is retained | thermal stability on storage [2]: without decomposition
